Results on 1 molecule are retold here after patent US20250213474A1, “COMPOSITIONS AND METHODS FOR METAL CONTAINING FORMULATIONS CAPABLE OF MODULATING IMMUNE RESPONSE” (The Regents of the University of Michigan, priority 2021, published 2025).

The subject of assay [1] is CT26 colon cancer cells. Put plainly: CT26 colon tumor model, metal ion-CDA combinations and coordination formulations. The note with it: three doses intratumoral on day 9, 12, 15. It counts as in vivo, Balb/c mice. More on the design: concentration or dose not given beside the values. As to the method: FIGS. 6A-6D: Enhanced STING activation and cancer therapy efficacy by Co^2+ and Mn^2+ in Vivo. (FIG. 6A) individual tumor growth curve after three doses of intratumor injection of the indicated formulation at day 9, 12, 15 after tumor inoculation. (FIG. 6B) Serum IFN-beta concentration 8 h after the 1st dose of the indicated formulation. (FIGS. 6C-6D) individual tumor growth (FIG. 6C) and survival (FIG. 6D) of the tumor bearing mice after treated with the indicated formulations.
FIGS. 7A-7E: Enhanced STING activation by Co^2+ and Mn^2+ led to improved antigen specific immune response after In vivo. (FIG. 7A) the percentage of AH1-specific CD8+ T cells among PBMC on day 16. (FIG. 7B) IFN-γ secreting cells counts per 5E4 PBMCs after stimulation with AH1 peptides at day 22. […]
All animals were cared for following federal, state, and local guidelines. […] Tumor size and survival were monitored every 2 or 3 days. Tumor size was calculated based on equation: volume=length×width^2×0.5. […] At day 17, the percentages of tumor antigen-specific CD8α+ T cells among PBMC were analyzed using the tetramer staining assay as described previously with peptide-MHC tetramer ([…] AH1) (the NIH Tetramer Core Facility, Atlanta, GA). […]

The test system of assay [2] is CT26 colon cancer cells. The assay can be described thus: CT26 tumor model, I.V. administration of CMP. It counts as in vivo. The note with it: free CDA 100 μg; CMPCDA 20 μg.
Method: (FIG. 22A) CT26 tumor-bearing BALB/c mice were treated with CDA+ Mn^2+ or CMPCDA, I.V. on days 9, 12, and 15. […] (FIGS. 22D-22F) Tumor growth (FIGS. 22D-22E) and animal survival (FIG. 22F) were Monitored over time. (FIG. 22G) Survivors re-challenged with CT26 tumor cells on day 145 were monitored for tumor Growth and survival.
For CT26 murine tumor model, female BALB/c mice of age 6-8 weeks (Jackson Laboratories) were inoculated with 1.5×10^5 CT26 colon cancer cells subcutaneously on the right back flank. […] Tumor-bearing mice were randomly assigned to different treatment groups. Indicated drugs or formulations were administrated via indicated route at indicated time points. Tumor size and survival were monitored every 2-4 days. Tumor size was calculated based on equation: volume=length×width^2×0.5. Animals were euthanized when the tumor reached 1.5 cm in diameter or when animals became moribund with severe weight loss or un-healing ulceration.
To address this issue, we evaluated the therapeutic effect of CMP after I.V. administration. CT26 tumor-bearing BABL/c mice were treated I.V. on days 9, 12, and 15 with 20 μg CDA and 10 μg Mn^2+ either in CMPCDA or soluble form (FIG. 22A).
Another assay has as its system NOOC1 tumor cells. The assay can be described thus: NOOC1 ICB-resistant squamous cell carcinoma model. The conditions noted are these: CDA dose 5 μg I.T. or 20 μg I.V., days 9, 12, 16, 20. The assay is classed as in vivo, C57BL/6 mice. As to the method: NOOC1 was maintained in the IMDM media (Gibco cat #12440053). To make 1L of growth media for NOOC1, 626 ml IMDM base was mixed with 313 ml F-12 nutrient mix (Gibco cat #11765054), 50 ml FBS (Hyclone cat #SH3039603), 10 ml Pen Strep (Thermo Fisher cat #15-140-122), 1.25 ml of 4 mg/ml insulin (Invitrogen cat #12585014), 200 μl of 200 μg/ml hydrocortisone (Sigma-Aldrich cat #H0888-1G), and 50 μl of 100 μg/ml EGF (EMD Millipore cat #01-107). For in vivo implantation, Matrigel (Thermo Fisher cat #CB-40230) was thawed overnight at 4° C. On the day of injection, NOOC1 was washed once with PBS and mixed with Matrigel to reach a density of 2×10^7 cells/ml. Each mouse was inoculated subcutaneously with 2×10^6 cells (100 μl). Tumor size and survival were monitored every 2 or 3 days as indicated above.
To further evaluate the potency of CMP, we performed head-to-head comparison studies between CMPCDA and other STING-activating formulations. C57BL/6 mice were inoculated at S.C. flank with 3×10^5 B16F10 tumors cells, and we administered three doses of CMPCDA on three-day intervals via either I.T. route when the average tumor volume reached 153±17 mm^3 (FIGS. 23A-23E) or via I.V. route when the average tumor volume reached 63±7 mm^3. (FIGS. 23F-23J)). […]

Regarding `Nc1ncnc2c1ncn2[C@@H]1O[C@@H]2COP(=O)(O)O[C@H]3[C@@H](O)[C@H](n4cnc5c(N)ncnc54)O[C@@H]3COP(=O)(O)O[C@H]2[C@H]1O` [free CDA, cyclic-di-AMP], the survival rate in the assay on CT26 colon cancer cells [1] is 20%. The “control of tumor growth by I.V. therapy” value in the assay with CT26 colon cancer cells [2] is listed as “could not control tumor growth”. Also, the “anti-tumor efficacy in NOOC1 model” value with NOOC1 tumor cells is “refractory”.
